Laboratory results reported in patent US9023789B2, “Amylin analogs and pharmaceutical compositions thereof” (Novo Nordisk A/S, priority 2012, dated 2015).
Numbered stars: 1 amine (or outer) side, 2 acyl side, 3 side chain; on linkers, the order of the positions; unused ones are H or OH. Bridge positions count the residues as written; N and C are the ends. Side chains are listed from the residue outwards. Peptide text beside a SMILES is read from it. * marks the point of attachment. C20 diacid = O=C(O)CCCCCCCCCCCCCCCCCCC(=O)*; γGlu = O=C(O)[C@H](CCC(=O)[*:2])N[*:1]

Assays:
Male Wistar rats = experiment: ASSAY (XII) effect from single subcutaneous administration on plasma calcium in rats; format: in vivo, rat; settings: for Plasma calcium red (%) 0-12 h (maximal): single s.c., 30 nmol/kg, compared to vehicle; for suppression of plasma calcium level relative to vehicle: single subcutaneous 30 nmol/kg, monitored over 24 hours
Protocol: Assay (XII)—Effect from Single Subcutaneous Administration of Analogue on Plasma Calcium in Rats
Male Wistar rats (Taconic Europe, ˜250 g at test date) were acclimatized to handling prior to the study. Rats were divided in groups of five and subcutaneously dosed with test compound at time=0. At time T=−15 min; 1 h, 2 h, 4 h, 7 h, 12 h, and 24 h a blood sample was obtained and heparin stabilized plasma was analysed for total calcium (Cobas, Hitachi). Data are illustrated in graphs as mean±SEM.

Male Sprague-Dawley rats = experiment: ASSAY (XI) single subcutaneous administration, food intake monitored for 48 hours in rats; format: in vivo, rat; settings: for Food intake red (%) 0-24 h / Food intake red (%) 24-48 h: single s.c., compared to vehicle; for food intake monitored over 48 hours: single subcutaneous administration, versus vehicle
From the text: Assay (XI)—Effect from Single Subcutaneous Administration of Analogue on Plasma Calcium in Rats
Male Sprague-Dawley rats (Taconic Europe, ˜250 g at test date) were acclimatized to reversed day light cycle (lights on from 10 PM to 10 AM) and single housing in online food intake monitoring system (Ellegaard MBRose, Denmark) prior to study start. […] Data are illustrated in graphs as mean±SEM.

Structure (SMILES)	Plasma calcium red (%) 0-12 h (maximal) (Male Wistar rats) [%]	Food intake red (%) 0-24 h (Male Sprague-Dawley rats; 3 nmol/kg) [%]	Food intake red (%) 24-48 h (Male Sprague-Dawley rats; 3 nmol/kg) [%]	Food intake red (%) 0-24 h (Male Sprague-Dawley rats; 30 nmol/kg) [%]	Food intake red (%) 24-48 h (Male Sprague-Dawley rats; 30 nmol/kg) [%]	suppression of plasma calcium level relative to vehicle (Male Wistar rats)	food intake monitored over 48 hours (Male Sprague-Dawley rats; 30 nmol/kg)
CC[C@H](C)[C@H](NC(=O)[C@H](C)NC(=O)CNC(=O)[C@H](Cc1ccccc1)NC(=O)[C@H](CC(N)=O)NC(=O)[C@@H]1CCCN1C(=O)[C@H](CO)NC(=O)[C@H](CO)NC(=O)[C@H](Cc1c[nH]cn1)NC(=O)[C@H](CCCNC(=N)N)NC(=O)[C@H](CC(C)C)NC(=O)[C@H](Cc1ccccc1)NC(=O)[C@H](CCC(=O)O)NC(=O)[C@H](C)NC(=O)[C@H](CC(C)C)NC(=O)[C@H](CCCNC(=N)N)NC(=O)[C@H](CCC(N)=O)NC(=O)[C@@H](NC(=O)[C@H](C)NC(=O)[C@@H]1CSSC[C@H](NC(=O)[C@@H](N)CCCCNC(=O)CC[C@H](NC(=O)CCCCCCCCCCCCCCCCCCC(=O)O)C(=O)O)C(=O)N[C@@H](CC(N)=O)C(=O)N[C@@H]([C@@H](C)O)C(=O)N[C@@H](C)C(=O)N[C@@H]([C@@H](C)O)C(=O)N1)[C@@H](C)O)C(=O)N1CCC[C@H]1C(=O)N[C@@H](CO)C(=O)N[C@@H](CO)C(=O)N[C@H](C(=O)N[C@@H](CC(N)=O)C(=O)N[C@H](C(=O)NCC(=O)N1CCC[C@H]1C(=O)N[C@@H](Cc1c[nH]cn1)C(=O)N[C@H](C(=O)N[C@@H](Cc1ccc(O)cc1)C(N)=O)[C@@H](C)O)C(C)C)[C@@H](C)O [Example 118] (H-K([γGlu-C20 diacid])CNTATCATQRLAEFLRHSSPNFGAIPSSTNVGPHTY-NH2; disulfide 2-7)	26	43	1	77	30		
CC[C@H](C)[C@H](NC(=O)[C@H](C)NC(=O)CNC(=O)[C@H](Cc1ccccc1)NC(=O)[C@H](CC(N)=O)NC(=O)[C@@H]1CCCN1C(=O)[C@H](CO)NC(=O)[C@H](CO)NC(=O)[C@H](Cc1c[nH]cn1)NC(=O)[C@H](CCCNC(=N)N)NC(=O)[C@H](CC(C)C)NC(=O)[C@H](Cc1ccccc1)NC(=O)[C@H](CCC(=O)O)NC(=O)[C@H](C)NC(=O)[C@H](CC(C)C)NC(=O)[C@H](CCCNC(=N)N)NC(=O)[C@H](CCC(N)=O)NC(=O)[C@@H](NC(=O)[C@H](C)NC(=O)[C@@H]1CSSC[C@H](NC(=O)[C@@H](N)CCCCNC(=O)CC[C@H](NC(=O)CCCCCCCCCCCCCCCCCCC(=O)O)C(=O)O)C(=O)N[C@@H](CC(N)=O)C(=O)N[C@@H]([C@@H](C)O)C(=O)N[C@@H](C)C(=O)N[C@@H]([C@@H](C)O)C(=O)N1)[C@@H](C)O)C(=O)N1CCC[C@H]1C(=O)N[C@@H](CO)C(=O)N[C@@H](CO)C(=O)N[C@H](C(=O)N[C@@H](CC(N)=O)C(=O)N[C@H](C(=O)NCC(=O)N1CCC[C@H]1C(=O)N[C@@H](CCCNC(=N)N)C(=O)N[C@H](C(=O)N[C@@H](Cc1ccc(O)cc1)C(N)=O)[C@@H](C)O)C(C)C)[C@@H](C)O [Example 117] (H-K([γGlu-C20 diacid])CNTATCATQRLAEFLRHSSPNFGAIPSSTNVGPRTY-NH2; disulfide 2-7; N-terminus assumed)	9			61	4	None of the example compounds at 30 nmol/kg trigger a notable suppression of the calcium level	reduces food intake
CC[C@H](C)[C@H](NC(=O)[C@H](C)NC(=O)CNC(=O)[C@H](Cc1ccccc1)NC(=O)[C@H](CC(N)=O)NC(=O)[C@@H]1CCCN1C(=O)[C@H](CO)NC(=O)[C@H](CO)NC(=O)[C@H](Cc1c[nH]cn1)NC(=O)[C@H](CCCNC(=N)N)NC(=O)[C@H](CC(C)C)NC(=O)[C@H](Cc1ccccc1)NC(=O)[C@H](CCC(=O)O)NC(=O)[C@H](C)NC(=O)[C@H](CC(C)C)NC(=O)[C@H](CCCNC(=N)N)NC(=O)[C@H](CCC(N)=O)NC(=O)[C@@H](NC(=O)[C@H](C)NC(=O)[C@@H]1CSSC[C@H](NC(=O)[C@@H](N)CCCCNC(=O)CC[C@H](NC(=O)CCCCCCCCCCCCCCCCCCC(=O)O)C(=O)O)C(=O)N[C@@H](CC(N)=O)C(=O)N[C@@H]([C@@H](C)O)C(=O)N[C@@H](C)C(=O)N[C@@H]([C@@H](C)O)C(=O)N1)[C@@H](C)O)C(=O)N1CCC[C@H]1C(=O)N[C@@H](CO)C(=O)N[C@@H](CO)C(=O)N[C@H](C(=O)N[C@@H](CC(N)=O)C(=O)N[C@H](C(=O)NCC(=O)N[C@@H](CO)C(=O)N[C@@H](CCCNC(=N)N)C(=O)N[C@H](C(=O)N[C@@H](Cc1ccc(O)cc1)C(N)=O)[C@@H](C)O)C(C)C)[C@@H](C)O [Example 51] (H-K([γGlu-C20 diacid])CNTATCATQRLAEFLRHSSPNFGAIPSSTNVGSRTY-NH2; disulfide 2-7 (inferred); N-terminus assumed)	10			52	30	None of the example compounds at 30 nmol/kg trigger a notable suppression of the calcium level	
CC[C@H](C)[C@H](NC(=O)[C@H](C)NC(=O)CNC(=O)[C@H](Cc1ccccc1)NC(=O)[C@H](CC(N)=O)NC(=O)[C@@H]1CCCN1C(=O)[C@H](CO)NC(=O)[C@H](CO)NC(=O)[C@H](Cc1c[nH]cn1)NC(=O)[C@H](CCCNC(=N)N)NC(=O)[C@H](CC(C)C)NC(=O)[C@H](Cc1ccccc1)NC(=O)[C@H](CCC(=O)O)NC(=O)[C@H](C)NC(=O)[C@H](CC(C)C)NC(=O)[C@H](CCCNC(=N)N)NC(=O)[C@H](CCC(N)=O)NC(=O)[C@@H](NC(=O)[C@H](C)NC(=O)[C@@H]1CSSC[C@H](NC(=O)[C@@H](N)CCCCNC(=O)CC[C@H](NC(=O)CC[C@H](NC(=O)CCCCCCCCCCCCCCCCCCC(=O)O)C(=O)O)C(=O)O)C(=O)N[C@@H](CC(N)=O)C(=O)N[C@@H]([C@@H](C)O)C(=O)N[C@@H](C)C(=O)N[C@@H]([C@@H](C)O)C(=O)N1)[C@@H](C)O)C(=O)N1CCC[C@H]1C(=O)N[C@@H](CO)C(=O)N[C@@H](CO)C(=O)N[C@H](C(=O)N[C@@H](CC(N)=O)C(=O)N[C@H](C(=O)NCC(=O)N1CCC[C@H]1C(=O)N[C@@H](CCCNC(=N)N)C(=O)N[C@H](C(=O)N[C@@H](Cc1ccc(O)cc1)C(N)=O)[C@@H](C)O)C(C)C)[C@@H](C)O [Example 110] (H-K([γGlu-γGlu-C20 diacid])CNTATCATQRLAEFLRHSSPNFGAIPSSTNVGPRTY-NH2; disulfide 2-7)	8			68	31	None of the example compounds at 30 nmol/kg trigger a notable suppression of the calcium level	reduces food intake
